Earlier results in patent US20100215725A1, “PHARMACEUTICAL COMPOSITION CONTAINING IDEBENONE FOR THE TREATMENT OF LIVER DISORDERS” (priority 2009, published 2010).

Test system: rat liver microsomes
Settings: pro-oxidative system NADPH/ADP/Fe3+

Row | concentration offering complete protection against lipid peroxidation in microsomes [µmol/L] | Compound
1 | 20 | COC1=C(OC)C(=O)C(CCCCCCCCCCO)=C(C)C1=O [Idebenone, 2,3-dimethoxy-5-methyl-6-(10-hydroxydecyl)-1,4-benzoquinone]
2 | 100 | COC1=C(OC)C(=O)C(C/C=C(\C)CC/C=C(\C)CC/C=C(\C)CC/C=C(\C)CC/C=C(\C)CC/C=C(\C)CC/C=C(\C)CC/C=C(\C)CC/C=C(\C)CCC=C(C)C)=C(C)C1=O [coenzyme Q-10]
